Reference: patent publication US11090292B2, “Compositions and methods of use of an inappetance-controlling compound” (Aratana Therapeutics, Inc., priority 2012, dated 2021)

Assays:
[1] = Example 9 four-day cat dosing regimen study: food consumption and body weight; type: in vivo, cats; conditions: for increase in body weight relative to baseline measurements: four days
Description: (§1) A four-day study was performed to further assess the pharmacokinetics of formulation 8 from Example 3 (i.e., the most “well-accepted” formulation) in cats. Moreover, the administration of formulation 8 was also analyzed to determine if administration of this formulation could induce sustained production of IGF-1 and relatively depressed, mitigated, or lower levels of cortisol. The different capromorelin-dosing regimens were also assessed for the impact on food intake and changes in body mass.
(§2) Twenty-four adult cats were divided into one of four treatment groups, with all four groups as active treatment groups. Each of the active treatment groups included 6 cats. The first group received a sterile injection of a capromorelin composition containing a 0.75 mg/kg concentration of capromorelin once per day during the four-day experiment. The second group received a once-daily sterile injection of a capromorelin composition at a concentration of 2 mg/kg. The third group received a once-daily dose of a capromorelin composition at a concentration of 2 mg/kg, via oral gavage. The fourth group received a once-daily dose of a capromorelin composition containing capromorelin at a concentration of 4 mg/kg, via oral gavage.
During the seven day study period, on an at least once-daily basis, each of the cats was monitored for clinical observations, mortality, moribundity, body mass, acceptability/palatability, and food consumption. Serum samples were taken to measure capromorelin concentration, IGF-1 concentration, and cortisol concentration. Serum samples were taken on days 1 and 4 immediately prior to dosing (0 minutes) and 30, 60, 90, 120, 240, 360, and/or 480 minutes post dosing. Additional serum samples were taken at 8 AM on Day 7 of the study to assess long-term impact of the active treatments.

cortisol [2] = assay: Example 9: serum cortisol concentration; type: in vivo, cats; conditions: day 4
Description: as §1
as §2, with “The fourth group received a once-daily dose of a capromorelin composition containing capromorelin at a concentration of 4 mg/kg, via oral gavage.” left out
During the seven day study period, on an at least once-daily basis, each of the cats was monitored for clinical observations, mortality, moribundity, body mass, acceptability/palatability, and food consumption. […]

cortisol [3] = assay: Example 1: serum cortisol concentration; type: in vivo, Beagle dogs; conditions: approximately 0.5 h post treatment, days 1, 2 and 7
Description: A controlled, seven-day study was performed to assess the impact of different capromorelin-dosing regimens on the production of insulin-like growth factor 1 (hereinafter “IGF-1”), growth hormone (hereinafter “GH”), and cortisol. The different capromorelin-dosing regimens were also assessed for the impact on food intake and changes in body mass.
Eighteen adult non-naïve Beagle dogs (nine males and nine females) were divided into one of three treatment groups. Each of the three treatment groups included three males and three females. Group A, which was the control group, was dosed twice per day, via oral gavage, with a vehicle (deionized water alone) and was used as a baseline data point for comparison against the active treatment regimens. Group B comprised an active treatment group that received two treatments per day, via oral gavage, with a capromorelin-containing composition with a concentration of 3 mg/kg capromorelin per treatment. Finally, Group C comprised an active treatment group that received one treatment per day, via oral gavage, with a capromorelin-containing composition with a concentration of 6 mg/kg capromorelin per treatment.
During the ten day study period, on an at least once-daily basis, each of the dogs was monitored for clinical observations, mortality, morbidity, body mass, and food consumption. […]

growth hormone = assay: Example 5: serum growth hormone; type: in vivo, Beagle dogs; conditions: Groups 2-4; mitigated by Day 4, further reduced by Day 7
Description: In order to further refine the dosing regimen that would provide an appropriate blood profile of capromorelin and desired results from the perspective of increased food intake and weight gain, an additional series of experiments were conducted. In these experiments, twenty-four adult (male and female) Beagle dogs weighing approximately 9 to 13 kilograms were randomly divided into four groups. Group 1 received a placebo formulation, without any active compound, two times per day; Group 2 received a composition comprising 3 mg/kg of body weight of capromorelin one time per day; Group 3 received a composition comprising 4.5 mg/kg of body weight of capromorelin one time per day; and Group 4 received a composition comprising 3 mg/kg of body weight of capromorelin two times per day. […]
In these experiments, the animals were orally administered the flavored formulation at approximately 8:00 AM and, for Group 4 only, again at 6:00 PM. […] Food consumption was calculated and recorded on Days −7 through Day 7. Baseline food consumption was calculated for each individual dog as the average number of grams of food consumed on Days −3, −2, and −1. The study period food consumption was calculated for each individual dog as the average of Days 1 through 7. […]

[4] = Example 4: clinical observations / toxicological responses; type: in vivo; conditions: 3 mg/kg once or twice daily, 7 days
Description: During the ten day study period, on an at least once-daily basis, each of the dogs was monitored for clinical observations, mortality, moribundity, body mass, acceptability/palatability, and food consumption. Serum samples were taken to measure capromorelin concentration, GH concentration, IGF-1 concentration, and cortisol concentration. Serum samples were taken on days 1, 2, 4, and 7 at −15 minutes (pre-dose), immediately prior to dosing (0 minutes) and 30, 45, 60, 90, 120, 240, 360, and/or 480 minutes post dosing. Additional serum samples were taken at 8 AM on Day 10 of the study to assess long-term impact of the active treatments.

CN1N=C2CCN(C(=O)[C@@H](COCc3ccccc3)NC(=O)C(C)(C)N)C[C@@]2(Cc2ccccc2)C1=O.O=C(O)C(O)C(O)C(=O)O [capromorelin]
increase in body weight relative to baseline measurements ([1]; 0.75 mg/kg sterile injection once daily): 1.33% | increase in body weight relative to baseline measurements ([1]; 2 mg/kg oral once daily): 0.70% | increase in body weight relative to baseline measurements ([1]; 2 mg/kg sterile injection once daily): 2.37% | increase in body weight relative to baseline measurements ([1]; 4 mg/kg oral once daily): 1.47% | food consumed relative to prior days of the experiment ([1]; sterile injectable formulations (0.75, 2 mg/kg) or 4 mg/kg oral gavage, once daily): consumed more food on day 4 | increases in cortisol serum levels relative to day 1 (cortisol [2]): mitigated on day 4 | cortisol concentrations in the serum relative to deionized water (cortisol [3]): increased | growth hormone in the serum (growth hormone): increase in growth hormone in the serum on Day 1 | toxicological responses [4]: no toxicological responses were noted
